As usually defined, the viability is a read-out of living cells in per cent, often relative to untreated cells. As usually defined, the IC50 is the concentration that gives 50% inhibition.

The results in this text go back to article PMC12292862 (Biomedicines, 2025).

The nature of data set [1]: Cell viability and cytotoxicity (MTT assay). The format is cell-based, human. Particulars: human, WI-38 human lung fibroblast cells, WI-38 cells; for IC50: 31.25 to 1000 µg/mL. As to the method:
(§1) The cell lines were obtained from VACSERA—Holding Company for Biological Products and Vaccines, Cairo, Egypt. A 96-well tissue culture plate was seeded with 1 × 10^5 cells/mL (Wl-38 cells) from the human lung fibroblast cell line, adding 100 µL per well, and incubated at 37 °C with 5% CO2 for 24 h to allow the formation of a confluent monolayer. Following incubation, the growth medium was aspirated, and the cell monolayers were washed twice with wash medium to remove residual serum. Serial two-fold dilutions of the test compound were prepared in RPMI-1640 supplemented with 2% fetal bovine serum. Each dilution (100 µL) was added to the designated wells, while three wells served as negative controls and received only maintenance medium. The plate was incubated at 37 °C for an appropriate duration, during which cellular morphology was monitored for signs of cytotoxicity, including monolayer disruption, cell rounding, shrinkage, or granulation. MTT solution (5 mg/mL in PBS) was prepared, and 20 µL was added to each well. The plate was briefly agitated at 150 rpm for 5 min and then incubated for 4 h at 37 °C to allow viable cells to metabolize MTT into insoluble formazan crystals. After incubation, the supernatant was carefully removed, and 200 µL of DMSO was added to each well to solubilize the formazan. The plates were agitated again at 150 rpm for 5 min, and the absorbance was measured at 560 nm with background subtraction at 620 nm. The resulting optical density values were directly proportional to the number of viable cells.
(§2) The information was presented as the mean ± SD of the volume difference (mL) between the control and carrageenan-treated paws. One-way analysis of variance (ANOVA) was used to analyze the experimental groups’ data, and a Tukey post hoc test was then performed. p < 0.05 was considered significant. The IC50 values were calculated using Microsoft Excel by plotting a dose–response curve between compound concentration and cell viability percentage. A linear regression or logarithmic trendline was fitted to the data points, depending on the curve behavior.

Data set [2] relates to WI-38 human lung fibroblast cells. Nature of the data set: Cell viability and cytotoxicity (MTT assay). The format is cell-based. Particulars: WI-38 cells; morphology. Here is the method: as §1, §2
For another data set, the system named is Wistar rats. Nature of the data set: Acute toxicity pilot study (OECD 423). It is filed as in vivo. Particulars: rat, i.p., 200 mg/kg. Here is the method:
According to OECD guidelines (Testing of Chemical Number 423), the study was carried out. In this study, mature male Wistar rats in good health were selected. After a 24 h fast, the animals were divided into groups of six. The test compounds were injected intraperitoneally at dosages ranging from 100 mg to 2000 mg per kilogram, dissolved in 2% Tween 80 saline solutions (v/v). The animals in the control groups were given just the vehicle, which was Tween 80 in 0.9% normal saline. […] Thus, 200 mg/kg (ED 50), which is considered one-tenth of the LD 50, was chosen as the anti-inflammatory dose.

In data set [3] the test system is carrageenan-induced rat paw edema. Nature of the data set: Carrageenan-induced paw edema. Particulars: for inhibition of paw edema after 1 h / inhibition of paw edema after 2 h / inhibition of paw edema after 3 h: 200 mg/kg i.p.; for inhibition of paw edema after 1 h: 1 h after carrageenan; for inhibition of paw edema after 2 h: 2 h after carrageenan; for inhibition of paw edema after 3 h: 3 h after carrageenan; for inhibition of paw edema after 4 h: compounds 200 mg/kg i.p., indomethacin 10 mg/kg, 4 h after carrageenan. The format is in vivo. The text has this: Rats’ carrageenan-induced paw edema model was used to assess the novel synthesized drugs’ anti-inflammatory properties. A total of 180–190 g of male Wistar rats were used for the experiments. In the animal house at Sohag University in Sohag, Egypt, every animal was kept in careful laboratory conditions. After being weighed and divided into six groups at random, the animals are housed for a week to reduce stress and allow them to get used to the laboratory environment. The chemicals that were synthesized were administered intraperitoneally (i.p.) to rats at a dosage of 200 mg/kg. The control group received only vehicles. […] The rats were given a 0.2 mL sub-plantar injection of a 1% (w/v) suspension of carrageenan (made in PBS) in their right hind paw thirty minutes following the injection of synthesized compounds [33]. […] The % inhibition of paw edema was calculated by the following formula [34]:%Inhibition = ((Mean edema of control group − Mean edema of test compound)/(Mean edema of control group)) × 100.
On the technique in general: In the carrageenan paw model, swelling and tenderness develop within hours.

The test system of another data set is rat cyclooxygenase 1. Nature of the data set: COX-1 level in carrageenan-injected paw (ELISA). To be noted: compounds 200 mg/kg i.p., indomethacin 10 mg/kg, mean ± SD. It is filed as in vivo. Here is the method:
The selective pro-inflammatory cytokines were measured quantitatively using rat-specific Enzyme-Linked Immunosorbent Assay (ELISA) kits from Thermo Scientific™ (Waltham, MA, USA) with CAT. No. ERCRP for CRP; from Elabscience with Cat. No. E-EL-R2856 for TNF-α and with Cat. No. E-EL-R0011 for IL-1α; from CUSABIO, Houston, TX, USA, with Cat. No. CSB-E04640r for IL-6; and from My BioSource Co, USA, with Cat. No. MBS825017 for IL-1β, with Cat. No. MBS753621 for rat cyclooxygenase 1, and with Cat. No. MBS266603 for rat cyclooxygenase 2. Meanwhile, an ovine COX inhibitor-screening in vitro assay (item number 760111) was obtained from Cayman Chemical (Ann Arbor, MI, USA). We purchased malondialdehyde (MDA), glutathione (GSH), and superoxide dismutase (SOD) detection kits from Nanjing Jiancheng Bio-Technology Co. Ltd. (Nanjing, China).
(§3) At the end of the experiments, the rats were subjected to anesthesia with chloroform and then sacrificed. Blood was obtained via heart puncture for biochemical analysis. Following the animals’ sacrifice, the paws were taken out, decalcified, and stored in a 10% formalin solution. To prepare the tissue samples, they were sliced into thicknesses of 5 µm. Hematoxylin and eosin dyes were used to create the histology slides, which were then examined using a photomicroscope (Meiji Techno®, Iruma, Japan) for pathological alterations. The presence of inflammation was documented. Protease/phosphatase inhibitor cocktail in cold phosphate-buffered saline (1:4) (pH 7, 0.01 mol/L) (Cat. No. PPC1010, Sigma-Aldrich) was used to homogenize each rat’s paw piece in a glass homogenizer. After filtering and centrifuging the resultant homogenate for five minutes at 5000× g, oxidative stress biomarkers like GSH, SOD, and MDA were measured. The trials were repeated three times.

Another data set has as its system rat paw tissue. Nature of the data set: Histopathological examination of paw tissue (HE). The format is in vivo. To be noted: carrageenan-injected paw; compounds 200 mg/kg i.p., indomethacin 10 mg/kg.
Text: as §3

The test system of data set [4] is rat paw tissue dermal collagen. Nature of the data set: Sirius Red staining of dermal collagen in paw tissue. The format is in vivo. Particulars: carrageenan-injected paw; compounds 200 mg/kg i.p., indomethacin 10 mg/kg.

In brackets after ≈: the same amount, converted by molar mass. Entries after “also recorded” stand apart in the source; their conditions may differ.

`NC1=NC2(CCCCCC2)n2nc(C(=O)Nc3ccc(S(N)(=O)=O)cc3)nc2N1` [Compound 1, 5′-Amino-N-(4-sulfamoylphenyl). -1′H-spiro[cycloheptane-1,7′-[1,2,4]triazolo[1,5-a][1,3,5] -triazine] -2′-carboxamide]: in data set [1], the viability at 31.25 µg/mL came to 99.9% and the IC50 is 363 mg/L (≈ 867 µM). Also, the “concentration above which cells shrink and lose fibroblast-like structure” value in data set [2] is “above 125 µg/mL”. For the same compound, in the data set on Wistar rats, the Ability to feed entry is recorded as “Normal”, the “Change in skin color” value was “Normal”, the Death entry is “No” and the Diarrhea entry was “Present”. In the data set with Wistar rats, the Drowsiness entry is given as “Absent”, the Dyspnea result is “Absent”, the Micturition entry was “Normal” and the Seizures entry is “Absent”. In the data set on Wistar rats, the Weight loss entry is recorded as “No”. Also, the Death result in the data set with Wistar rats (listed as compound 1, 200 mg/kg) was “no mortality”. Also, in data set [3], the “inhibition of paw edema after 1 h” value was determined as 53.6%, the “inhibition of paw edema after 2 h” value is given as 65.74%, the “inhibition of paw edema after 3 h” value is on record as 78.52% and the “inhibition of paw edema after 4 h” value is given as 96.31%. This compound returned a COX-1 level in the data set on rat cyclooxygenase 1 of 4.31 ± 0.90 ng/mL. For the same compound, in the data set with rat paw tissue, the “histopathological findings of paw tissue (HE)” value (“histopathological findings” below) is listed as “mild inflammatory dermal edema”. Also, the “dermal collagen content and distribution (Sirius Red)” value in data set [4] is “normal collagen quantity and distribution; also recorded: normal in both quantity and organization”.

In data set [1], `CC1(C)CC(=O)CC2(C1)N=C(N)Nc1nc(C(=O)Nc3ccc(S(N)(=O)=O)cc3)nn12` (stereo not drawn) [Compound 2] registered a viability at 31.25 µg/mL of 99.9% and an IC50 of 328 mg/L (≈ 734 µM). In addition, the “concentration above which cells shrink and lose fibroblast-like structure” value in data set [2] is on record as “above 125 µg/mL”. In addition, in the data set with Wistar rats, the Ability to feed entry was “Normal”, the “Change in skin color” value is recorded as “Normal”, the Death result is on record as “No” and the Diarrhea entry is on record as “Present”. Further, in the data set on Wistar rats, the Drowsiness entry is “Absent”, the Dyspnea entry was “Absent”, the Micturition result was “Normal” and the Seizures entry is “Absent”. In addition, the Weight loss result with Wistar rats is “No”. In addition, in the data set on Wistar rats (listed as compound 2, 200 mg/kg), the Death entry is given as “no mortality”. Also, in data set [3], the “inhibition of paw edema after 4 h” value turned out to be 72.08%. This compound also displayed a COX-1 level in the data set with rat cyclooxygenase 1 of 5.24 ± 0.09 ng/mL. In the data set on rat paw tissue, the “histopathological findings” value is “moderate edema”. The “dermal collagen content and distribution (Sirius Red)” value in data set [4] is “normal dermal collagen; also recorded: normal appearance and distribution”.

As to `NC1=NC2(c3ccccc3Cc3ccccc32)n2nc(C(=O)Nc3ccc(S(N)(=O)=O)cc3)nc2N1` [Compound 3], in data set [1], the viability at 31.25 µg/mL is 99.8% and the IC50 turned out to be 148 mg/L (≈ 296 µM). Further, in data set [2], the “concentration above which cells shrink and lose fibroblast-like structure” value is “above 62.5 µg/mL”. For the same compound, in the data set with Wistar rats, the Ability to feed result is listed as “Normal”, the “Change in skin color” value is listed as “Normal”, the Death entry is reported as “No” and the Diarrhea entry is given as “Present”. Besides, in the data set with Wistar rats, the Drowsiness entry is “Absent”, the Dyspnea result is listed as “Absent”, the Micturition entry is “Normal” and the Seizures entry is “Absent”. In addition, the Weight loss entry in the data set with Wistar rats was “No”. Also, in the data set on Wistar rats (listed as compound 3, 200 mg/kg), the Death result is given as “no mortality”. Moreover, in data set [3], the “inhibition of paw edema after 1 h” value is 59.5%, the “inhibition of paw edema after 2 h” value is 79.93%, the “inhibition of paw edema after 3 h” value stood at 97.23% and the “inhibition of paw edema after 4 h” value was found to be 99.69%. Besides, in the data set on rat cyclooxygenase 1, the COX-1 level is reported as 2.82 ± 0.08 ng/mL. Also, in the data set on rat paw tissue, the “histopathological findings” value was “normal dermis; also recorded: normal dermis without any lesion; also recorded: normal histological structure without edema or lesions”. Moreover, the “dermal collagen content and distribution (Sirius Red)” value in data set [4] is “normal dermal collagenous fibers without any lesion; also recorded: complete restoration of normal dermal collagen”.
